pIC50: −log10 of the molar value.
Target: T1, ATP-dependent 6-phosphofructokinase (Trypanosoma brucei, UniProt O15648)
T1 sequence (O15648 whole entry): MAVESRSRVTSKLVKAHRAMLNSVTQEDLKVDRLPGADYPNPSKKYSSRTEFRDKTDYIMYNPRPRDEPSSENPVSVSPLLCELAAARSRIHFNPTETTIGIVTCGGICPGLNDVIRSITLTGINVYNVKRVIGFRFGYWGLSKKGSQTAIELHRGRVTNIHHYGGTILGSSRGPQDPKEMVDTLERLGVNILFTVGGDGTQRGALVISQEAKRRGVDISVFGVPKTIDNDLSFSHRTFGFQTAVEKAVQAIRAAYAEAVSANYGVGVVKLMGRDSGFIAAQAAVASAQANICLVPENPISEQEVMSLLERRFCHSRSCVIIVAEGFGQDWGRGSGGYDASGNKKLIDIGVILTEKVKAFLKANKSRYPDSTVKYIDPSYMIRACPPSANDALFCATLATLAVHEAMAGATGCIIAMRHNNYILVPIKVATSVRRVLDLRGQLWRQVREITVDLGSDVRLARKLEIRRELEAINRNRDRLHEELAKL
Assay: Inhibition of Trypanosoma brucei phosphofructokinase

Row | Structure (SMILES) | pIC50
1 | OC[C@H]1O[C@H](CNc2ccc(Cl)c(Cl)c2)[C@@H](O)[C@@H]1O | 3.39
2 | OC[C@H]1O[C@H](CNc2ccc3ccccc3c2)[C@@H](O)[C@@H]1O | 3.05
